{"source": "patent US7439063B2", "about": "“Neuroprotective synergy of erythropoietin and insulin-like growth factors” (Burnham Institute for Medical Research, priority 2002, dated 2008)", "key": {"[1]": {"system": "rat primary cerebrocortical cultures", "method": "The neuroprotective effects of concurrent EPO and IGF-I administration were compared to individual treatment with EPO or IGF-I in rat primary cerebrocortical cultures.\nNeuronal apoptosis was quantified by double labeling for TUNEL reactivity, which in conjunction with condensed morphology is indicative of apoptosis, and the neuron-specific protein microtubule associated protein-2 (MAP2) 16 hours after NMDA insult.\nFor these experiments, mixed neuronal/glial cerebrocortical cultures were prepared as described previously (Bonfoco et al., supra, 1995); Lei et al., Neuron 8:1087-1099 (1992); and Lipton et al., Nature 364:626-632 (1993)). In brief, cortical tissue from embryonic day 16 Sprague-Dawley rats was dissociated in 0.5% trypsin and plated on poly-L-lysine coated glass coverslips at a density of 10^5 cells per 35 mm culture dish in serum-containing medium. Prior to experimental use, cerebrocortical neurons were kept at 37° C. and 5% CO2 for at least 17 days to permit full expression of NMDA receptors (Lei et al., supra, 1992; and Lipton et al., supra, 1993).\nEPO and IGF-I incubations were performed essentially as follows. Human recombinant EPO purchased from Amgen (Epoietin alfa, 2000 IU/ml) was diluted in cell culture medium to a final concentration of 5-10 U/ml. Insulin-like growth factor-I (IGF-I) (Calbiochem; La Jolla, Calif.) was diluted in cell culture medium to a final concentration of 50-100 ng/ml.\nNMDA incubations were performed as follows. Cerebrocortical cultures were exposed to 200 μM NMDA in nominally Mg^2+-free Earle's Balanced Salt Solution (EBSS), containing 1.8 mM CaCl2 and 5 μM glycine for 20 minutes. After NMDA exposure, cultures were washed with EBSS and then placed in conditioned tissue culture medium filtered with a […] Acrodisk filter (Perkin-Elmer; Wellesley, Mass.) to remove activated microglia. Where indicated, EPO, IGF-I or both EPO and IGF-I were added to the conditioned media.\nDetection of apoptotic neurons was performed essentially as follows. After experimental incubation, cerebrocortical cultures were fixed in PBS (150 mM NaCl, 1.7 mM monobasic sodium phosphate, 9.1 mM dibasic sodium phosphate) with 4% paraformaldehyde, and permeabilized in PBS containing 1% Tween-20. Apoptotic cells were identified by condensed morphology in conjunction with TUNEL using the Apoptosis Detection System (Promega; Madison, Wis.). […]\nFor PI3-kinase inhibition, cultures were prepared and incubated with NMDA alone, or with EPO or IGF-I individually, or EPO in combination with IGF-I, as described above. […] Neuronal apoptosis was assessed 16 hours after NMDA application by determining the percentage of MAP2-positive cells that were also TUNEL positive, as described above."}, "Akt": {"system": "Akt", "assay": "Akt phosphorylation on serine-473 (immunoblot)", "assay_type": "cell-based, rat"}, "[2]": {"system": "active caspase-3/XIAP complex", "assay": "XIAP associated with active caspase-3 (immunoprecipitation, densitometry)", "assay_type": "cell-based, rat", "conditions": "NMDA exposure alone", "method": "In mixed cerebrocortical cultures, EPO is known to induce expression of XIAP and c-IAP, two related factors capable of inhibiting caspase-3 proteolytic activity (Digicaylioglu and Lipton, supra, 2001; and Holcik and Korneluk, Nat. Rev. Mol. Cell. Biol. 2:550-556 (2001)). Here, cerebrocortical cultures were analyzed for the effect of combined EPO and IGF-I treatment on association of XIAP and active caspase-3. Cultures were incubated with EPO, IGF-I and NMDA and, after immunoprecipitation of the active form of caspase-3, immunoprecipitates were probed for the presence of XIAP using western blotting.\nTo perform these experiments, cerebrocortical cultures were exposed to NMDA, or EPO and IGF-I, or concurrently exposed to NMDA and EPO/IGF-I as described above. Immunoprecipitation of culture lysates was performed using precleared whole-cell lysates, incubated with a 1:100 dilution of antibody specifically recognizing the cleaved form of caspase-3 (Cell Signaling Technologies) for one hour at room temperature, followed by addition of protein A/G-Sepharose beads and immunoprecipitation as described above. The immunoprecipitates were separated by electrophoresis and transferred to a nitrocellulose membrane, which was blotted with a 1:200 dilution of anti-XIAP antibody (Trevigen; Gaithersburg, Md.)."}, "caspase-3": {"system": "caspase-3", "assay": "Caspase-3 (DEVD) cleavage assay in culture lysates", "assay_type": "cell-based, rat", "conditions": "lysates 16 hours after NMDA exposure; simultaneous application or 3 hour preincubation", "method": "To study the effect of combined EPO/IGF-I treatment on proteolytic activity of caspase-3, protein lysates were prepared from cerebrocortical cultures 16 hours after NMDA exposure, and caspase-3 activity was assayed using the fluorescent caspase-3 substrate, DEVD-7-amino-4-trifluoromethyl-coumarin (DEVD-AFC).\nCaspase-3 (DEVD) cleavage assays were performed as described previously. Briefly, cerebrocortical cultures were lysed in cold buffer containing 10% sucrose, 0.1% CHAPS, 100 mM HEPES (pH 7.5), and 10 mM dithiothreitol (DTT). Cytoplasmic protein extracts (200 μg) were incubated for 30 minutes at 37° C. with 80 μM caspase-3 peptide substrate DEVD-AFC (Enzyme Systems Products; Livermore, Calif.). Free fluorescent AFC released by caspase-3 activity was measured on a FluoroMax2 fluorometer at 400 nm excitation and 505 nm emission."}, "cerebrocortical neurons": {"system": "cerebrocortical neurons", "conditions": "6, 12, 16 and 48 hours after NMDA exposure; mixed neuronal-glial cultures", "procedure": "The total number of viable MAP2 positive cells was assayed to avoid the effects of secondary necrosis seen at longer survival times (Bonfoco et al., supra, 1995).\nNeuronal survival was assayed as the total number of MAP2 positive cells to avoid the confounding effects of secondary necrosis, which can occur at later time points and obfuscate the number of apoptotic cells (Bonfoco et al., supra, 1995)."}, "erythropoietin receptor": {"biological_target": "T1, erythropoietin receptor (Homo sapiens, UniProt P19235)", "T1 sequence (P19235 25-249 limits assumed)": "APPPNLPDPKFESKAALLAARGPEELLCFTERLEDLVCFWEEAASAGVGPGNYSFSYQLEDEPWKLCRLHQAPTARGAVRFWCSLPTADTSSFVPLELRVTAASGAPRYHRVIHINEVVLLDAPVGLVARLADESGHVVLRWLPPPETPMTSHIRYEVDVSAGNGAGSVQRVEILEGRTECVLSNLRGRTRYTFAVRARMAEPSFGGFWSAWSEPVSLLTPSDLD", "conditions": "known erythropoietin mimetic peptides; cited from earlier work"}, "[3]": {"system": "p85 subunit of PI3-kinase", "assay": "phosphorylation of the p85 subunit of PI3-kinase (immunoblot)", "assay_type": "cell-based, rat", "conditions": "IGF-I: maximal phosphorylation; EPO: phosphorylation observed; treated 10, 20 or 30 minutes", "method": "PI3-kinase is activated by phosphorylation of a p85 regulatory subunit, which leads to release of the catalytic subunit (Pleiman et al., Science 263:1609-1612 (1994)). To determine if EPO or IGF-I induces phosphorylation of the p85 subunit of PI3-kinase, rat cerebrocortical cultures were treated with EPO or IGF-I for 10, 20 or 30 minutes, and protein lysates from these cultures analyzed by immunoblotting for the presence of phospho-p85. As shown in FIG. 5B (upper and lower panels), both factors induced p85 phosphorylation in a time-dependent manner. […] Equal protein loading was confirmed by analyzing the amounts of total p85 with a second antibody.\nPreparation of total cell extracts for immunoblotting or immunoprecipitation was performed essentially as follows. Cultures were washed briefly in cold PBS. After addition of ice cold lysis buffer (50 mM Tris-Cl, 150 mM NaCl, 1.1 mM PMSF, 10 μg/ml Aprotinin, 1% Triton X-100, pH 8.0, 2 mM Ortho-Vanadate, 0.1% deoxycholate), cells were scraped off the culture dishes. Lysates were transferred to a microcentrifuge tube, vortexed for 15 seconds at 4° C., and cleared by centrifugation for 20 minutes at 14,000×g at […]. Protein concentrations were determined using a BCAProtein assay kit (Pierce; Rockford, Ill.).\nImmunoblotting was performed as follows. […]"}, "[4]": {"conditions": "naturally occurring peptide; cited from earlier work"}, "[5]": {"system": "focal cerebral ischemic damage", "conditions": "administered intranasally; cited from earlier work"}, "[6]": {"assay": "brain delivery of intranasally applied radiolabeled EPO (autoradiography)", "assay_type": "in vivo", "text": "As disclosed herein, EPO or an active fragment or analog thereof can cross the blood-brain barrier following intranasal administration, whereby unwanted systemic effects such as increased hematocrit can be avoided."}}, "note": "Read-outs that look alike come from different tables or passages of the source.", "data": [{"compound": "CN[C@H](CC(=O)O)C(=O)O", "note": "[NMDA, N-methyl-D-aspartate]", "values": [{"measurement": "apoptotic appearance and TUNEL reactivity, % of MAP2-labeled neurons", "setting": "[1]; 200 μM NMDA for 20 minutes alone, 16 hours after NMDA insult", "value": "76+7%"}, {"measurement": "constitutive levels of Akt phosphorylation", "setting": "Akt; 20-minute exposure to NMDA", "value": "reduced constitutive levels of Akt phosphorylation"}, {"measurement": "amount of XIAP associated with active caspase-3, NMDA alone", "setting": "[2]", "value": "modest increase"}, {"measurement": "caspase-3-like activity (DEVD cleavage)", "setting": "caspase-3", "value": "increased DEVD cleavage"}, {"measurement": "number of surviving neurons in mixed cultures", "setting": "cerebrocortical neurons", "value": "dramatic decrease in the number of surviving neurons"}]}, {"compound": "GGCRIGPITWVCGG [AF11154]", "values": [{"measurement": "IC50", "setting": "erythropoietin receptor", "value": 10000, "unit": "nM"}]}, {"compound": "GGDYHCRMGPLTWVCKPLGG [EMP2]", "values": [{"measurement": "IC50", "setting": "erythropoietin receptor", "value": 200, "unit": "nM"}]}, {"compound": "GGLYLCRFGPVTWDCGYKGG [EMP5]", "values": [{"measurement": "IC50", "setting": "erythropoietin receptor", "value": 1000, "unit": "nM"}]}, {"compound": "GGTYSCHFGPLTWVCKPQGO [EMP1]", "values": [{"measurement": "IC50", "setting": "erythropoietin receptor", "value": 200, "unit": "nM"}]}, {"compound": "GGVYACRMGPITWVCSPLGC [EMP3]", "values": [{"measurement": "IC50", "setting": "erythropoietin receptor", "value": 300, "unit": "nM"}]}, {"compound": "IGF-I: Insulin-like growth factor-I (Calbiochem), also known as somatomedin C, a hormone of 70 amino acids", "values": [{"measurement": "cell death, treatment at the time of NMDA insult", "setting": "[1]; factor applied individually at the time of NMDA insult", "value": "did not significantly reduce cell death"}, {"measurement": "neuronal viability in control incubations", "setting": "[1]; in the absence of NMDA exposure", "value": "did not affect neuronal viability"}, {"measurement": "neuronal apoptosis after preincubation", "setting": "[1]; preincubation for three hours before NMDA, EPO 10 U/ml, IGF-I 100 ng/ml", "value": "significantly attenuated neuronal apoptosis"}, {"measurement": "time to phosphorylation of p85 subunit of PI3-kinase", "setting": "[3]", "value": 10, "unit": "min"}, {"measurement": "phospho-serine-473 Akt", "setting": "Akt; three hour incubation", "value": "moderate Akt activation"}, {"measurement": "pI", "setting": "[4]", "value": 8.4}, {"measurement": "protection against focal cerebral ischemic damage", "setting": "[5]", "value": "can protect against focal cerebral ischemic damage"}]}, {"compound": "IGF-II: naturally occurring, relatively neutral peptide with 60% amino acid homology to native IGF-I", "values": [{"measurement": "pI", "setting": "[4]", "value": 6.4}]}, {"compound": "VGNYMCHFGPITWVCRPGGG [EMP4]", "values": [{"measurement": "IC50", "setting": "erythropoietin receptor", "value": 500, "unit": "nM"}]}, {"compound": "radiolabeled EPO: intranasally applied radiolabeled erythropoietin", "values": [{"measurement": "distribution after intranasal application", "setting": "[6]", "value": "migrated into olfactory tissue and was observed in the rostral migratory stream"}, {"measurement": "distribution after intranasal application", "setting": "[6]; listed as radiolabeled erythropoietin", "value": "accumulated in brain tissue"}]}]}
